According to patent US7935530B2, “Polyamides with tail structures capable of binding DNA” (California Institute of Technology, priority 2006, dated 2011):
“Also recorded” adds a separate entry of the source.

Legend:
FLT1 mRNA = test: DFO-induced FLT1 mRNA by quantitative real-time RT-PCR, U251 cells; assay type: cell-based, human; conditions: for HIF-1 induced genes affected: FLT1: HRE gaacAACGTGgaat, E 100 nM, 11.1 and 11.3 1 μM, U251; for Effect on DFO-induced FLT1 mRNA (in words): U251 cells, polyamides 1 μM, echinomycin 100 nM
Experimental: (§1) U251 cells were plated in 24-well plates at a density of 20−30×10^3 cells per well (40−60×10^3 cells/ml) in RPMI (ATCC) supplemented with 5% FBS (Irvine Scientific). After 24 hours, polyamides were added to the adhered cells in cell media solutions at the appropriate concentration and incubated with the cells for 48 hours. […] When appropriate, echinomycin was added two hours prior to DFO stimulation. Isolation of RNA and subsequent cDNA synthesis were as previously described (19). When appropriate, HIF-1α siRNA (HIF-1α validated stealth duplex, Invitrogen) or mismatch control siRNA with similar GC content (Invitrogen) was transfected 48 hours prior to RNA isolation. Transfection of siRNA was achieved using Lipofectamine 2000 (Invitrogen) according to manufacturer's protocols. Quantitative real-time RT-PCR was performed using SYBR Green PCR Master Mix (Applied Biosystems) on an ABI 7300 instrument. Target gene mRNA was measured relative to β-glucuronidase as an endogenous control. Primer employed were: VEGF, L 5′[…]-3′ (SEQ ID NO:22), R 5′-GGGTACTCC TGGAAGATGTCC-3′ (SEQ ID NO:23); β-glucuronidase, L 5′-[…]-3′ (SEQ ID NO:24), R 5′-[…]-3′ (SEQ ID NO:25); FLT1, L 5′-[…]-3′ (SEQ ID NO:26), R 5′-[…]-3′ (SEQ ID NO:27).

[1] = test system: HIF-1 occupancy at the PGK1 HRE; test: Chromatin immunoprecipitation of HIF-1α, U251 cells, PGK1 HRE; assay type: cell-based, human; conditions: DFO-induced, polyamides 1 μM, echinomycin 100 nM
Experimental: U251 cells were plated in 15 cm diameter plates and left to attach overnight. Media, time course, DFO, polyamide, echinomycin, and siRNA treatments were as described above. After the 16 hour DFO treatment, cells were treated with 1% formaldehyde for 10 minutes. Chromatin was isolated and sheared. HIF-1α antibodies (Novus Biologicals) were used to immunoprecipitate HIF-1-bound DNA fragments. After crosslink reversal, PCRs using primers targeted to the regions of interest were used to assess enrichment of bound fragments as compared to mock-precipitated (no antibody) controls. PCRs were monitored either using SYBR Green PCR Master Mix (Applied Biosystems) on an ABI 7300 instrument, or directly visualized using gel electrophoresis. The following primers were used: VEGF, L 5′-CCTTTGGGTTTTGCCAGA-3′ (SEQ ID NO:28), R 5′-CCAAGTTTGTGGAGCTGA-3′ (SEQ ID NO:29); CA9, L 5′-AAAAGGGCGCTCTGTGAGT-3′ (SEQ ID NO:30), R 5′-GCTGACTGTGGGGTGTCC-3′ (SEQ ID NO:31); PGK1, L 5′-CCCCTAAGTCGGGAAGGTT-3′ (SEQ ID NO:32), R 5′-[…]-3′ (SEQ ID NO:33).

LDHA = test: HIF-1 induced gene expression, U251 cells (Table 3), LDHA; assay type: cell-based, human; conditions: HREs ggcgGACGTGcggg, ctcaCACGTGggtt, E 100 nM
Experimental: as §1

VEGF mRNA = test: DFO-induced VEGF mRNA by quantitative real-time RT-PCR, U251 cells; assay type: cell-based, human; conditions: for HIF-1 induced genes affected: VEGF: HRE tgcaTACGTGggct, E 100 nM, 11.1 and 11.3 1 μM, U251; for Effect on DFO-induced VEGF mRNA (in words) / Effect on induced VEGF expression (in words) / Induction of VEGF mRNA by DFO (in words), FIG. 15a legend: U251 cells; for Effect on DFO-induced VEGF mRNA (in words): 0.2 and 1 μM; for Effect on induced VEGF expression (in words): Example 2, polyamides 1 μM, echinomycin 100 nM; for Induction of VEGF mRNA by DFO (in words), FIG. 15a legend: echinomycin (100 nM), polyamides (10 μM)
Experimental: Cells were plated in 24-well plates at a density of 15-20×10^3 cells per well (30-40×10^3 cells/ml). Polyamides were added to adhered cells in solutions of cell media at the appropriate concentration and allowed to incubate with the cells for 48 h. […] Cells were harvested, RNA isolated, cDNA synthesized and quantitative real-time RT-PCR conducted as described previously (16). Briefly, RNA was isolated using the RNeasy kit (Qiagen), cDNA synthesized using Powerscript (BD Biosciences) and quantitative real-time RT-PCR performed using SYBR Green PCR Master Mix (Applied Biosystems) on an ABI 7300 instrument. VEGF expression was measured relative to β-glucuronidase (GUSB) as an endogenous control. Statistical analyses of results were determined using three independent biological replicates. The primer sequences used for VEGF and GUSB are available upon request. HeLa cells were purchased from ATCC and U251 cells were received as a gift from Dr Giovanni Melillo of the National Cancer Institute.
as §1

[2] = test system: 5′-ATACGT-3′ sequence within the HRE of the VEGF promoter; test: Quantitative DNase I footprint titration on pGL2-VEGF-Luc PCR product, VEGF HRE; assay type: binding; conditions: for Ka at the VEGF HRE: Example 2, pGL2-VEGF-Luc
Experimental: Quantitative DNase I footprint titration experiments were used to determine polyamide-binding affinities (Ka) to the 5′-ATACGT-3′ sequence within the HRE of the VEGF promoter. These experiments were performed using the 5′-^32P-labeled 197 bp PCR amplification product of the plasmid pGL2-VEGF-Luc isolated by non-denaturing gel electrophoresis (16, 21). Quantitative DNase I footprint titration experiments were conducted as reported previously (21).
Quantitative DNase I footprint titration experiments were used to measure the binding affinities of polyamides 11.1, 11.2, 11.3, and echinomycin on 5′ ^32P-labeled fragments of pGL2-VEGF-Luc and pCSJ-FLT1 containing promoter sequences containing the HREs of VEGF and FLT1, respectively. Quantitative DNase I footprint titration experiments were conducted as reported previously (56).

TFRC = test: HIF-1 induced gene expression, U251 cells (Table 3), TFRC; assay type: cell-based, human; conditions: HRE agcgTACGTGcctc; R siRNA, E 100 nM, 11.1 and 11.3 1 μM; unit not given
Experimental: as §1

11 HIF-1 induced genes = test: Quantitative real-time RT-PCR confirmation on the set of 11 HIF-1 induced genes, U251 cells; assay type: cell-based, human; conditions: E 100 nM, polyamides 1 μM
Source text: Quantitative real-time RT-PCR was used to confirm the effects of polyamides 11.1, 11.3, echinomycin, and siRNA treatments on these 11 genes. […] Chromatin immunoprecipitation was used to measure HIF-1 occupancy at the HREs of VEGF and carbonic anhydrase IX (CA9), which were both affected by polyamide 11.1, and PGK1, which was unaffected (FIG. 17). HIF-1α occupancy at the VEGF HRE was decreased by HIF-1α siRNA, echinomycin, and polyamide 11.1, but less so by treatment with HRE-mismatch polyamide 11.3.
as §1

EDN1 = test: HIF-1 induced gene expression, U251 cells (Table 3), EDN1; assay type: cell-based, human; conditions: HRE aggcAACGTGcagc; E 100 nM, 11.1 and 11.3 1 μM
Experimental: as §1

PGK1 = test: HIF-1 induced gene expression, U251 cells (Table 3), PGK1; assay type: cell-based, human; conditions: HREs gtgaGACGTGcggc, tgccGACGTGcgct, E 100 nM
Experimental: as §1

EGLN3 = test: HIF-1 induced gene expression, U251 cells (Table 3), EGLN3; assay type: cell-based, human; conditions: HRE gggcTACGTGcaga, E 100 nM
Experimental: as §1

Row | Structure (SMILES) | HIF-1 induced genes affected: FLT1 (FLT1 mRNA) | HIF-1 occupancy at PGK1 (chromatin immunoprecipitation) [1] | HIF-1 induced genes affected: LDHA (LDHA; 11.1 and 11.3 1 μM) | HIF-1 induced genes affected: VEGF (VEGF mRNA) | Effect on DFO-induced VEGF mRNA (in words) (VEGF mRNA) | Effect on induced VEGF expression (in words) (VEGF mRNA) | Induction of VEGF mRNA by DFO (in words), FIG. 15a legend (VEGF mRNA) | HIF-1 induced genes affected: TFRC (TFRC) | Genes of the set of 11 HIF-1 induced genes affected (quantitative real-time RT-PCR) (11 HIF-1 induced genes) | HIF-1 induced genes affected: EDN1 (EDN1) | HIF-1 induced genes affected: PGK1 (PGK1; 11.1 and 11.3 1 μM) | HIF-1 induced genes affected: EGLN3 (EGLN3; 11.1 and 11.3 1 μM) | Ka at the VEGF HRE [2] | further results
1 | CN(CCCNC(=O)c1cccc(C(=O)O)c1)CCCNC(=O)c1cc(NC(=O)c2cc(NC(=O)c3nc(NC(=O)c4cc(NC(=O)[C@H](N)CCNC(=O)c5nc(NC(=O)c6cc(NC(=O)c7cc(NC(=O)c8sccc8Cl)cn7C)cn6C)cn5C)cn4C)cn3C)cn2C)cn1C [Polyamide 11] | -2.0 | minimally affected | 1.3 | -2.0 | inhibited dose dependently; also recorded: dose-dependent inhibition of VEGF | inhibited most of the increase in VEGF mRNA following DFO treatment | decrease VEGF mRNA levels to near non-induced levels | 1.1 | 4 | -2.5 | -1.2 | 1.0 |  | Effect on DFO-induced FLT1 mRNA (in words) (FLT1 mRNA; listed as 11.1): inhibited FLT1 expression; also recorded: decrease FLT1 mRNA levels; Binding affinities (M-1), 5′-TACGTG-3′ (equilibrium association constants) ([2]; mean of three DNase I footprint titration experiments, standard deviations in parentheses, 197 bp PCR product of pGL2-VEGF-Luc): 2.6 (±0.4) × 10^10 M-1
2 | CN(CCCNC(=O)c1cccc(C(=O)O)c1)CCCNC(=O)c1cc(NC(=O)c2cc(NC(=O)c3cc(NC(=O)c4nc(NC(=O)[C@H](N)CCNC(=O)c5cc(NC(=O)c6cc(NC(=O)c7nc(NC(=O)c8nccn8C)cn7C)cn6C)cn5C)cn4C)cn3C)cn2C)cn1C [Polyamide 23] | -1.1 | minimally affected | 1.1 | -1.3 | more modest effect than its match congener 11; also recorded: modest activity at both concentrations |  | more modest effect | 1.4 | little effect on the expression of all the others | 1.3 | 1.0 | −1.1 | 8.0 (±1.0)×10^8 M^−1 | Effect on DFO-induced FLT1 mRNA (in words) (FLT1 mRNA; listed as 11.3): minimal effect; also recorded: minimal or no effect; Effect on induced VEGF expression (in words) (VEGF mRNA; listed as 11.3): more modest effect on VEGF mRNA levels; also recorded: modest but measurable effect on VEGF expression
3 | CS[C@H]1SC[C@H]2C(=O)N(C)[C@@H](C(C)C)C(=O)OC[C@@H](NC(=O)c3cnc4ccccc4n3)C(=O)N[C@@H](C)C(=O)N(C)[C@@H]1C(=O)N(C)[C@@H](C(C)C)C(=O)OC[C@@H](NC(=O)c1cnc3ccccc3n1)C(=O)N[C@@H](C)C(=O)N2C [echinomycin, reference compound] | -4.7 | did not appear to affect HIF-1 occupancy at this locus |  | -34.0 |  | potently inhibits VEGF expression to levels below the non-induced control | potently inhibits VEGF mRNA to below non-induced levels | −2.3 | reduced expression of all genes in this set | -31.0 |  |  | 8.4 (±2.1)×10^6 M^−1 | Effect on DFO-induced FLT1 mRNA (in words) (FLT1 mRNA): decrease FLT1 mRNA levels; Effect on DFO-induced FLT1 mRNA (in words) (FLT1 mRNA; listed as Echinomycin): reduced FLT1 expression to below that of the non-induced control; HIF-1 induced genes affected: LDHA (LDHA): −4.4; HIF-1 induced genes affected: PGK1 (PGK1): -3.3; HIF-1 induced genes affected: EGLN3 (EGLN3): −33.6
